# Reference: ChEMBL document CHEMBL1201862, “PubChem BioAssay data set” (2004)
# The source made the active and inactive calls.
# Experiments:
# [1] = luciferase reporter signal suppression in cells – H4 neuroglioma cells, luminescence, dose response (AID 1990); type: functional, cell-based
# [2] = Luminescence Cell-Based Dose Response HTS to Identify Inhibitors of 5'UTR Stem-Loop Driven Prion Protein mRNA Translation in H4 Neuroglioblastoma Cells. [Related pubchem assays: 1827 (Project Summary), 1813 (Primary HTS)]; type: functional
# [3] = alpha-synuclein stem-loop luciferase translation blockers – H4 neuroglioma cells, luminescence, confirmation (AID 1988); type: functional, cell-based
# HEK293 [4] = assay: HEK293T cell viability loss, resazurin readout – resazurin fluorescence, cytotoxicity control for NF-kB activator project, SAR follow-up (AID 493251); type: functional, cell-based; conditions: Homo sapiens
# Jurkat [5] = assay: SAR Analysis of small molecule inhibitors of T-cell specific antigen receptor-induced NF-kB activation in a Jurkat cell line using a luminescence assay - Set 2. [Related pubchem assays (depositor defined):AID435003, AID435012, AID465]; type: functional, cell-based; conditions: Homo sapiens
# HEK293 [6] = assay: SAR Analysis of small molecule inhibitors of T-cell specific antigen receptor-induced NF-kB activation in a HEK-293T cell line using a luminescence assay - Set 2. [Related pubchem assays (depositor defined):AID435003, AID435012, AID489026]; type: functional, cell-based; conditions: Homo sapiens
# [7] = reduction of Shn3 3'UTR-driven luciferase in osteoblasts – cell-based, Clone20 osteoblasts, firefly luciferase, cherry-picked, dose response (AID 624132); type: functional;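 also: firefly luciferase luminescence from reporter carrying the Shn3 3'UTR in osteoblasts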
# [8] = loss of viability in HepG2 cells – cell-based, CellTiter-Glo, cherry-picked, cytotoxicity control for Shn3 inhibitor project, dose response (AID 624134); type: functional
# [9] = non-specific 3'UTR reporter inhibition in Clone20-Shn3RL – cell-based, Renilla luciferase, cherry-picked, counter-screen for Shn3 inhibitor project, dose response (AID 624133); type: functional
# [10] = Fluorescence-based cell-based high throughput dose response assay for inhibitors of the interaction of nucleotide-binding oligomerization domain containing 2 (NOD2) and the receptor-interacting serine-threonine kinase 2 (RIPK2).; type: functional; conditions: Homo sapiens
# Paired box protein Pax-8 = Paired box protein Pax-8 (Homo sapiens, UniProt Q06710); assay: PAX8 transcriptional activity inhibition in RMG-I – RMG-I cells, luciferase, cherry-pick, dose response (AID 687027); type: functional, cell-based;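 also: luciferase reporter driven by Pax8 target thyroperoxidase promoter measured by SteadyGlo luminescence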
# BJ [11] = assay: BJ-TERT fibroblast viability loss – cell-based, RAS-independent, luminescence, dose response (AID 1933); type: functional; conditions: Homo sapiens
# BJ [12] = assay: cells; type: functional, cell-based; conditions: Homo sapiens
# BJ [13] = assay: BJ-TERT-LT-ST fibroblast viability loss – cell-based, RAS-independent, luminescence, dose response (AID 1935); type: functional; conditions: Homo sapiens;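 also: BJ fibroblasts immortalized with TERT plus LT and ST oncogenes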
# [14] = DRD fibroblast viability loss – cell-based, non-viral oncogenic, luminescence, dose response (AID 1934); type: functional; conditions: Homo sapiens
# [15] = Luminescence Cell-Based Dose Retest to Confirm Inhibitors of Cancer Stem Cells. [Related pubchem assays (depositor defined):AID2717, AID2721]; type: functional; conditions: Homo sapiens
# [16] = HEK-293T viability loss after treatment – luminescence, T-cell screen hits, cytotoxicity control for TCR NF-kB inhibitor project, dose response (AID 489026); type: functional, cell-based;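 also: cells exposed to compound about 14 hours before the viability readout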
# BJ [17] = assay: growth inhibition of engineered Ras-driven BJ cells – cell-based, alamar blue fluorescence, cherrypicked samples, dose response (AID 2631); type: functional; conditions: Homo sapiens;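 also: confirmatory dose-response assay in RAS-dependent BJ fibroblasts engineered with TERT, LT and ST, with cytotoxicity read by fluorescence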
# [18] = molecular target: Acyl-homoserine lactone acylase PvdQ (Pseudomonas aeruginosa (strain LESB58), UniProt Q9I194); assay: PvdQ acylase enzyme activity blockers – biochemical, fluorescence, plate reader and imaging, cherry-picks, dose response (AID 493231)
# HeLa = assay: toxicity to human HeLa cells – cell-based, 48 h, plate reader, cherry-picks, cytotoxicity control, dose response (AID 504942); type: functional
# CAAX prenyl protease 2 [19] = molecular target: CAAX prenyl protease 2 (Saccharomyces cerevisiae S288c, UniProt Q03530); type: biochemical
# CAAX prenyl protease 2 [20] = molecular target: CAAX prenyl protease 2 (Homo sapiens, UniProt Q9Y256); assay: inhibition of Ras-converting CAAX protease Rce1 – biochemical, yeast membranes, quenched-peptide fluorescence, cherry-pick, dose response (AID 588849)
# Phospholipase D1 = Phospholipase D1 (Homo sapiens, UniProt Q13393); assay: cellular phospholipase D1 inhibition IC50 – cell-based, dose response (AID 602151); type: functional;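 also: cellular PLD1 assay in Calu-1 cells stimulated with PMA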
# Phospholipase D2 = Phospholipase D2 (Homo sapiens, UniProt O14939); assay: cellular phospholipase D2 inhibition IC50 – cell-based, dose response (AID 602147); type: functional;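 also: cellular assay in HEK293 cells overexpressing GFP-tagged PLD2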
# [21] = molecular target: T1, Heat shock factor protein 1 (Mus musculus, UniProt P38532); assay: decrease of HSF1-responsive luciferase luminescence – cell-based, NIH3T3, dose retest, confirmation (AID 2382); type: functional;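 also: NIH3T3 fibroblasts with HSF1-driven luciferase reporter stressed by proteasome inhibitor MG132; luminescence from HSF1-driven luciferase expression after 8 hours of MG132 stress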
# T1 sequence (P38532 whole entry): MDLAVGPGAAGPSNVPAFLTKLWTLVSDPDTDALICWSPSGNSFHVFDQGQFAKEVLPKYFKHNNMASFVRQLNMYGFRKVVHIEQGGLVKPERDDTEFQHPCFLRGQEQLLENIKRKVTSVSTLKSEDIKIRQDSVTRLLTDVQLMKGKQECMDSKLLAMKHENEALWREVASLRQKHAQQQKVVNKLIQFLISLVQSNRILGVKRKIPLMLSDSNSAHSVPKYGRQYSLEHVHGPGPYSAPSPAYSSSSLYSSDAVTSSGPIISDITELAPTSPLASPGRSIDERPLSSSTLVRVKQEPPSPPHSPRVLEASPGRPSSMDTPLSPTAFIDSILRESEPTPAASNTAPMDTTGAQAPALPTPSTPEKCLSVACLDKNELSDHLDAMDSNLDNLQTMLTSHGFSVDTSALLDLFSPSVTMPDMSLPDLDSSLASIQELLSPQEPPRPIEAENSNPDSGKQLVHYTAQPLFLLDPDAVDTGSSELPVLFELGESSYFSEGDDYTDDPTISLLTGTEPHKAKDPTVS
# [22] = Luminescence-based counterscreen assay for KLF5 inhibitors: dose response cell-based high throughput screening assay to identify cytotoxic compounds using the IEC-6 intestinal epithelial cell line. [Related pubchem assays: 1700 (Primary screen.), 1834 (Confirmation screen.), 1858 (Summary AID.), 1905 (Counterscreen.)]; type: functional
# Jurkat [23] = assay: blockers of NF-kB activation in T cells – Jurkat, luciferase reporter, luminescence, B- and T-cell, dose response (AID 489004); type: functional, cell-based; conditions: Homo sapiens;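 also: NF-kB luciferase reporter Jurkat cells stimulated with PMA plus ionomycin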
# [24] = HEK-293T viability loss, compound-treated – cell-based, uHTS hits, cytotoxicity control for B/T-cell NF-kB inhibitor project, dose response (AID 489019); type: functional;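 also: IC50 reflects cytotoxicity as loss of cell viability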
# [25] = inhibitors acting on PAX2 in cells – cell-based, plate reader, dry powder samples, selectivity assay for PAX8 inhibitor project, dose response (AID 743048); type: functional;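 also: HEK293 cells carrying a WT1 promoter luciferase reporter driven by expressed Pax2; potency is for inhibition of Pax2 driven reporter signal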
# [26] = COV362 cell viability loss – plate reader, dry powder, SA12, cytotoxicity control for PAX8 inhibitor project, dose response (AID 743144); type: functional, cell-based
# [27] = Shn3 3'UTR reporter signal decrease – cell-based, Clone20 osteoblasts, firefly luciferase, cherry-pick, set 2, Schnurri-3 inhibitor project, dose response (AID 720490); type: functional;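 also: actives lower the luminescence signal as inhibitors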
# [28] = toxicity toward immortalized ovarian surface epithelium – cell-based, plate reader, dry powder samples, cytotoxicity control for PAX8 inhibitor project, dose response (AID 743045); type: functional
# [29] = PAX5 cellular inhibition readout – cell-based, plate reader, dry powder samples, selectivity assay for PAX8 inhibitor project, dose response (AID 743047); type: functional;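 also: HEK293 cells carrying a Pax5 driven CD19 promoter luciferase reporter; potency of inhibitors that lower reporter luminescence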
# [30] = IGROV1 cell killing – plate reader, dry powder samples, PAX8 inhibitor project, dose response (AID 743043); type: functional, cell-based; conditions: IGROV-1
# [31] = PAX8-dependent cell viability loss – plate reader, dry powder, dose response (AID 743049); type: functional, cell-based
# Escherichia coli = assay: microbe, parasite or virus in culture
# Sequence of Paired box protein Pax-8 (Q06710 whole entry): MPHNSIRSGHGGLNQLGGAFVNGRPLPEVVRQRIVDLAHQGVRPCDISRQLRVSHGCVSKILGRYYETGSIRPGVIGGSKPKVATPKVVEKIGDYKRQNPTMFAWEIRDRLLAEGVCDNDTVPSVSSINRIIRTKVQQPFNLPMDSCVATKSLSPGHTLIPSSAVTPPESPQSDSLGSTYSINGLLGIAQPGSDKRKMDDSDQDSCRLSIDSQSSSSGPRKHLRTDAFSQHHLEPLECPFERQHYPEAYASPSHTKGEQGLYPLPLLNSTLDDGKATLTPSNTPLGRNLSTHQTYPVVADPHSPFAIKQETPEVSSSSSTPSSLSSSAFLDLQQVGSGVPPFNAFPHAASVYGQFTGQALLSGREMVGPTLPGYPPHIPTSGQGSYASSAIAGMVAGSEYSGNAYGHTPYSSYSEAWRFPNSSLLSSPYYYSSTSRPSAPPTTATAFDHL
# Sequence of Phospholipase D2 (O14939 whole entry): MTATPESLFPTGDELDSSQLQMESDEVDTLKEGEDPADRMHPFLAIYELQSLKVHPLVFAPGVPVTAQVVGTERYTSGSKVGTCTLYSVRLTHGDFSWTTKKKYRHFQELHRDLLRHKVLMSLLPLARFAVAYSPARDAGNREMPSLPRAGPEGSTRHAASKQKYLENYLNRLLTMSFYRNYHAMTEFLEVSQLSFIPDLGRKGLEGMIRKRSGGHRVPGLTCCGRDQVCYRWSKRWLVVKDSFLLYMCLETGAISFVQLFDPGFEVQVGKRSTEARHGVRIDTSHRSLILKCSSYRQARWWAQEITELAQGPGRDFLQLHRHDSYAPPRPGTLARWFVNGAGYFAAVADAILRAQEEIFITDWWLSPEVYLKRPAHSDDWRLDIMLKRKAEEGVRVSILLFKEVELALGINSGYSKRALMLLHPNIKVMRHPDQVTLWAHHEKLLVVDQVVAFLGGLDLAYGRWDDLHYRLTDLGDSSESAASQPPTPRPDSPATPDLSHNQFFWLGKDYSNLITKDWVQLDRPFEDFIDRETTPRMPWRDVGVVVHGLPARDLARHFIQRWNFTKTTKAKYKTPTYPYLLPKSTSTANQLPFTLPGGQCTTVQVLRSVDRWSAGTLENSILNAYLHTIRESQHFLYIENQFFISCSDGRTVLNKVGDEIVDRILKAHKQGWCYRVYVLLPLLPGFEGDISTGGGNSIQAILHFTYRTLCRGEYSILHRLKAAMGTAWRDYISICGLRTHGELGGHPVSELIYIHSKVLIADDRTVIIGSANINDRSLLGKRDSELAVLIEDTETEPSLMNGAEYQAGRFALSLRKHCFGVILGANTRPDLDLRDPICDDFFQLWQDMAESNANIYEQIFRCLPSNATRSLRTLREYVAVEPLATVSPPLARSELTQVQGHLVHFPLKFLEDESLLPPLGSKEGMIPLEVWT
# Sequence of CAAX prenyl protease 2 (Saccharomyces cerevisiae S288c, UniProt Q03530) (Q03530 whole entry): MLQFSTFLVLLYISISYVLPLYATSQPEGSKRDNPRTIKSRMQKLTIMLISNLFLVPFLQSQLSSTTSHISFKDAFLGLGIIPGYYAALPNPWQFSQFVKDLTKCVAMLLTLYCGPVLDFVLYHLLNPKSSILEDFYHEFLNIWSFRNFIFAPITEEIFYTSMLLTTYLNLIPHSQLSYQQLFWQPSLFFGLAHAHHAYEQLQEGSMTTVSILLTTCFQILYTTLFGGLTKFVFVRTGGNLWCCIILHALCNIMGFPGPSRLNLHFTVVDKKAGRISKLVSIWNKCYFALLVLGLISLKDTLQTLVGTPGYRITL
# Sequence of Acyl-homoserine lactone acylase PvdQ (Q9I194 24-193 limits assumed): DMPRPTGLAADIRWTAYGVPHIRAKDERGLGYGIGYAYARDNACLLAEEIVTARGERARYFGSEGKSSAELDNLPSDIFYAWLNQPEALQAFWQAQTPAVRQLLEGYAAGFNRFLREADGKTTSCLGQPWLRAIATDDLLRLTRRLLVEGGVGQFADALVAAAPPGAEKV
# Sequence of Acyl-homoserine lactone acylase PvdQ (Q9I194 217-762 limits assumed): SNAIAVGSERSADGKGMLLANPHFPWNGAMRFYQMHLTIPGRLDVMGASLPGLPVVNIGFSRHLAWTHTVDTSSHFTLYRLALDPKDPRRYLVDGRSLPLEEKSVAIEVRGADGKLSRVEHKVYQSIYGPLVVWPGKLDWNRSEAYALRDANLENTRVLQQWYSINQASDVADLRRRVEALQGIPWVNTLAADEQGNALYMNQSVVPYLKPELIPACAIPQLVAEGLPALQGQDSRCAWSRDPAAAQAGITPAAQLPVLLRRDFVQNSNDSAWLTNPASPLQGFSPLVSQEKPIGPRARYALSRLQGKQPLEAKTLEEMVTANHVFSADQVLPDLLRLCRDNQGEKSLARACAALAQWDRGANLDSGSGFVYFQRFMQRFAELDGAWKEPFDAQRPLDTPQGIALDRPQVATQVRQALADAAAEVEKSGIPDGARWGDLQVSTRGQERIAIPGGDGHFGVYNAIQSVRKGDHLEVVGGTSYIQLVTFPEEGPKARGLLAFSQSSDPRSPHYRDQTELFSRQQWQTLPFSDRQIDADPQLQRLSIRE
# Sequence of CAAX prenyl protease 2 (Homo sapiens, UniProt Q9Y256) (Q9Y256 whole entry): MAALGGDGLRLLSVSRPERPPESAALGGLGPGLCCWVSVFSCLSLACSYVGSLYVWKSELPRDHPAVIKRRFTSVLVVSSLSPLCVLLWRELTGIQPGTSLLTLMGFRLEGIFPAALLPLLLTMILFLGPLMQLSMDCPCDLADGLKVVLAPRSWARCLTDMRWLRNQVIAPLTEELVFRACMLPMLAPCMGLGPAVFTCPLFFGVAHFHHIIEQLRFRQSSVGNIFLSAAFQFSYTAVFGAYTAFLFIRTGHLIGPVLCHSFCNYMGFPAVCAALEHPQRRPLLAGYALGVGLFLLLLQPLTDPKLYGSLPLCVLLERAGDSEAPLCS
# Sequence of Phospholipase D1 (Q13393 whole entry): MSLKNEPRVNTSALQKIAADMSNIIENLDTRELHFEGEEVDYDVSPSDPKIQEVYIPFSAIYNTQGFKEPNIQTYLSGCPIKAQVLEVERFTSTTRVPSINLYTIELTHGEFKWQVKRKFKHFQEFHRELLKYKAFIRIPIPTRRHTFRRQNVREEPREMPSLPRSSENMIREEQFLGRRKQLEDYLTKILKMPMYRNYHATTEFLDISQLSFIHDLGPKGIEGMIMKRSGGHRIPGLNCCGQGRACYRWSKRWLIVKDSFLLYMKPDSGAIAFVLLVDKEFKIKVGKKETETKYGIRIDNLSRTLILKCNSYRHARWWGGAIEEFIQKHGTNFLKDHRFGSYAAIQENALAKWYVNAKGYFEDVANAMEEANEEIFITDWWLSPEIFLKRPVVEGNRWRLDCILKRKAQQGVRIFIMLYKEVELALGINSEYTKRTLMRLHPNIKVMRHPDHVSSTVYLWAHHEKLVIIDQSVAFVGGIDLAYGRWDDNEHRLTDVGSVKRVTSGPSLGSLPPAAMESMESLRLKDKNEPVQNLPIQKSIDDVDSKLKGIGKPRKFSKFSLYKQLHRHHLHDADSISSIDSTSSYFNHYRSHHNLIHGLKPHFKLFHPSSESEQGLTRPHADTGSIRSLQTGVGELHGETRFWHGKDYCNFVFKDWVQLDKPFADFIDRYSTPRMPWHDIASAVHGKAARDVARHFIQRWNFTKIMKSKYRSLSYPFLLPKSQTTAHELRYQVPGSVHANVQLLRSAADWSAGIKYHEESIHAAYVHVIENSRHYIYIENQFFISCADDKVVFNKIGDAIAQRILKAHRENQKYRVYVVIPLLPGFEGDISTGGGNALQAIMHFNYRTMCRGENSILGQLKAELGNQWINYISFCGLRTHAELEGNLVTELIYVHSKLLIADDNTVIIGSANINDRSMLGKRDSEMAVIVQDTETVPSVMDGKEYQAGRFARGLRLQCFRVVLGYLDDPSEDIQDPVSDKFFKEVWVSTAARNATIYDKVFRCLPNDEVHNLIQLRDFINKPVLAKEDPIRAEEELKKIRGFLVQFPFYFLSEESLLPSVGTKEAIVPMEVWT
structure (smiles),measurement,setting,value
CC(=O)N1CCN(c2ccc(NC(=O)c3ccc([N+](=O)[O-])o3)cc2Cl)CC1,EC50,[1],11.1 µM (active)
same,EC50,[2],8.31 µM (active)
same,EC50,[3],9.29 µM (active)
same,IC50,HEK293 [4],55.3 µM (inactive)
same,IC50,Jurkat [5],27.3 µM (inactive)
same,IC50,HEK293 [6],22 µM (inactive)
same,AC50,[7],1.08 µM (active)
same,AC50,[8],48.1 µM (active)
same,AC50,[9],11.2 µM (active)
same,IC50,[10],49.8 µM (inactive)
same,AC50,Paired box protein Pax-8,5.83 µM (active)
O=Cc1cc2ccccc2nc1SCc1ccc(Cl)c(Cl)c1,EC50,[1],> 120 µM (not active)
same,EC50,BJ [11],0.279 µM (active)
same,EC50,[2],> 120 µM (not active)
same,EC50,BJ [12],0.777 µM (active)
same,EC50,BJ [13],0.396 µM (inconclusive)
same,EC50,[14],0.567 µM (active)
same,AC50,[15],2.82 µM (active)
same,IC50,[16],> 80 µM (inactive)
same,EC50,BJ [17],< 0.104 µM (active)
COC(=O)c1ccc(/C=C(\C#N)c2ccccn2)cc1,AC50,[18],2.61 µM (active)
same,AC50,HeLa,103 µM (active)
O=C(c1cc(-c2ccccc2)nc2ccccc12)N1CCN(c2ccccn2)CC1,AC50,CAAX prenyl protease 2 [19],4.89 µM (active)
same,AC50,CAAX prenyl protease 2 [20],17 µM (active)
O=C(NCCN1CCC2(CC1)C(=O)Oc1ccccc12)c1cnc2ccccc2c1,IC50,Phospholipase D1,20 µM (inactive)
same,IC50,Phospholipase D2,20 µM (active)
O=C(NCCc1ccccc1)c1ccc2c(c1)OCCCO2,EC50,[21],< 0.16 µM (active)
same,IC50,[22],> 39.8 µM (not active)
same,IC50,Jurkat [23],0.64 µM (active)
same,IC50,[24],> 80 µM (inactive)
same,AC50,[7],1.05 µM (active)
same,AC50,[8],> 70 µM (inactive)
same,AC50,Paired box protein Pax-8,2.38 µM (active)
same,AC50,[25],2 µM (active)
same,AC50,[26],84.9 µM (active)
same,AC50,[27],3.96 µM (active)
same,AC50,[28],14.2 µM (active)
same,AC50,[29],2.29 µM (active)
same,AC50,[30],40.3 µM (active)
same,AC50,[31],58.7 µM (active)
same,AC50,Escherichia coli,34.1 µM (active)
